The source of these data is patent US4261989A, “Geldanamycin derivatives and antitumor drug” (Kaken Chemical Co. Ltd., priority 1979, dated 1981).

In data set [1] the test system is cancer cell W-2K-11. Briefly: Growth inhibition of cancer cell W-2K-11 (percent inhibition of cell multiplication, Table 2). The class given is cell-based, mouse. Conditions: Mus musculus, 48 hours after addition of sample, W-2K-11 cells; for inhibition at 1 µg/mL: concentration 1 μg/ml; for inhibition at 1 µg/mL / inhibition at 10 µg/mL: read-out: Percent inhibition (%); for inhibition at 10 µg/mL: concentration 10 μg/ml. The procedure: Cancer cell W-2K-11 was obtained by transforming fibroblast C3H-2K clone derived from kidney of mouse by cancerogenic virus. The cancer cell W-2K-11 was cultured by the following method.
(1) Preparation of culture medium
9.4 Gram of Eagle's MEM culture media (manufactured by Nissui Seiyaku K. K.) was dissolved in 900 ml. of distilled water and the solution was sterilized under high pressure at 120° C. for 15 minutes and cooled. 100 Ml. of calf serum and 3-5 ml. of 10% aqueous solution of sodium bicarbonate were added to the solution to adjust pH to 7.1-7.2. 10 Ml. of an aqueous solution of L-glutamine (2.92 g./100 ml.) filtered by a millipore filter was added just before the use of the solution as culture medium.
(2) Preparation of transplanted cell solution
The cancer cell W-2K-11 stored in a freezer at -80° C. was melted at room temperature and treated by a centrifugal separator at 670 g. for 5 minutes. The precipitated cell was dispersed in 50 ml. of the culture medium (1). The suspension was charged into Roux flask and cultured at 37° C. The multiplication of the cells was initiated and accomplished after 3 to 4 days. The cultured mixture was decanted and 10 ml. of 0.2% trypsin solution was added and the mixture was kept at room temperature for 2 to 3 minutes and the trypsin mixture was decanted and then, 50 ml. of the culture medium (1) was added to prepare a suspension of cells.
(3) Incubation of cells and addition of sample
1.8 Ml. of the suspension of cells (2) was charged into each Petri dish and incubated in a carbon dioxide gas incubator (5% of CO2; 95% of air) at 37° C. Twenty four hours after the initiation of the incubation, 0.2 ml. of each ethanol solution of each sample was added, and the incubation was continued. Forty eight hours after the addition of the sample, numbers of survival cells were counted under a microscopic observation and each percent inhibition of cell multiplication was calculated. [formula]

Data set [2] in a line: Acute toxicity, LD50 to mouse by intraperitoneal injection (Table 3). To be noted: in vivo, ip. The procedure:
LD50 of each sample to mouse was measured by intraperitoneal injection of each sample.

Bounds are passed on as bounds.

Usually inhibition stands for the share of the control response that was lost under treatment. Broadly, the LD50 is the dose at which mortality reaches 50%. A high value points to lower toxicity. Compound `COC1=C2C[C@@H](C)C[C@H](OC)[C@H](O)[C@@H](C)/C=C(\C)[C@H](OC(N)=O)[C@@H](OC)/C=C\C=C(/C)C(=O)NC(=CC1=O)C2=O` [Geldanamycin] yielded an inhibition at 1.2 µg/mL in data set [1] (concentration 1.2 μg/ml) of 61%. Besides, in data set [2], the LD50 came to 15 mg/kg.
For `COC1=C2CC(C)CC(OC)C(O)C(C)C=C(C)C(OC(N)=O)C(OC)C=CC=C(C)C(=O)NC(=C(N(C)C)C1=O)C2=O` (stereo not drawn) [Example 36, 19-dimethylamino-Geldanamycin], in data set [1], the inhibition at 1 µg/mL was determined as 70% and the inhibition at 10 µg/mL was 84%. The LD50 in data set [2] is above 240 mg/kg.
Consider `COC1=C2CC(C)CC(OC)C(O)C(C)C3OC3(C)C(OC(N)=O)C(OC)C=CC=C(C)C(=O)NC(=CC1=O)C2=O` (stereo not drawn) [Example 45, 8,9-epoxy-Geldanamycin], for which, in data set [1], the inhibition at 1 µg/mL was 95% and the inhibition at 10 µg/mL was determined as 100%. The same compound came in with an LD50 in data set [2] of 240 mg/kg.
Take `COC1=C2CC(C)CC(OC)C(O)C(C)C=C(C)C(OC(N)=O)C(OC)C=CC=C(C)C(=O)N(C)C(=CC1=O)C2=O` (stereo not drawn) [Example 41, 21-N-methyl-Geldanamycin]: the inhibition at 10 µg/mL in data set [1] came out at 82%. Besides, in data set [2], the LD50 came out at 120 mg/kg.
As for `CCNC1=C2CC(C)CC(OC)C(O)C(C)/C=C(\C)C(OC(N)=O)C(OC)/C=C\C=C(/C)C(=O)NC(=CC1=O)C2=O` (stereo not drawn) [Example 3], in data set [1], the inhibition at 1 µg/mL is 90%. In data set [2], the LD50 turned out to be 120 mg/kg.
